“Also recorded” adds a separate entry of the source. Where a SMILES comes first, the peptide text is derived from it.
What was measured:
[1] = system: CCI-induced cold allodynia; assay: Chronic constriction injury (CCI) model of neuropathic pain: cold allodynia; assay type: in vivo; settings: CCI rats
Source text: Male Sprague-Dawley rats (purchased from Shanghai SLAC Laboratory Animal Co., Ltd. at the beginning of the experiment for 7 weeks, n=7-10/treatment) were used. CCI status was formed according to the method of Bennett G J and Xie Y K (Pain 1988, 33:87-107). Rats were anesthetized by intraperitoneal injection of sodium pentobarbital. The left common sciatic nerve was made to be exposed in the middle of the thigh in a state deprived of adherent tissue, and 4-0 silk thread (Ethicon Inc.) was utilized around it and four passes were loosely ligated at approximately 1-mm intervals. Sham surgery was performed in the same manner except for sciatic nerve ligation. After 1-2 weeks after CCI surgery, as documented in Tanimoto-Mori Setal. (BehavPharmacol., 19:85-90, 2008), The cold allodynia was evaluated by using a cooling plate (LHP-1700CP, TECA) with a temperature controller (Mode 13300-0, CAL Controls Inc.). The animals were acclimatized to a device consisting of a transparent acrylic box (10×12×12 cm) on a stainless steel plate (15×33 cm). The surface of the cooling plate was maintained at 10° C., and the temperature of the plate was continuously monitored with an accuracy of 0.1° C. To perform the experiment, rats were loaded on the cooling plate and the polypeptide DeC-1.2 was administered before and after a cutoff value of 120 seconds, and the paw withdrawal latency (PWL) was measured. […]

[2] = system: oxaliplatin-induced mechanical allodynia; assay: Oxaliplatin-induced mechanical allodynia, von Frey test; assay type: in vivo, mice; settings: 3.5 μg/20 μl i.pl., day 10 after oxaliplatin, compared to saline
Protocol: (§1) Adult male CD1 mice (6-8 weeks old) were used as experimental animals for behavioral experiments and primary cultures of DRG neurons. Mice were raised in the condition of 12 h light/12 h dark of light cycle with adequate standard chow and water. All animal protocols were approved by the Institutional Animal Care and Use Committee (IACUC) of Zhejiang University.
All of mice were habituated to the behavioral testing environment for 1-to-2 hours in 2-to-3 days before the behavioral testing. Single intraperitoneal (i.p.) injection of oxaliplatin (6 mg/kg body weight) was given to generate chemotherapy-induced neuropathic pain. Neuropathic pain behaviors were tested about 10 days after oxaliplatin injection.
Mechanical allodynia was assessed by measuring paw withdrawal thresholds in von Frey test. The paw withdrawal thresholds of mice in the von Frey test were tested according to Dixon'sup-down method. […] The vonFrey hairs with different stiffness were selected in turn to simulate, with 5 s interval per two simulations, and total six simulations were completed, the paw withdrawal thresholds (PWT) of mice were assessed according to the responding amount table The von Frey test was respectively performed on day 10 pre- or post-treatment with Oxaliplatin, saline or 3.5 μg/20 μL DeC-1.2 was intraplantarly injected to assess its analgesic effect on oxaliplatin-induced allodynia.

[3] = system: Icilin-induced wet-dog shake behavior; assay: Icilin-induced wet-dog shake test; assay type: in vivo, mice
Protocol: as §1
At least 6 adult male CD1 mice were prepared for experimental or control groups. The animals were pretreated with Vehicle or DeC-1.2 of gradient dose via intravenous injection (i.v.) at 30 min before icilin (intraperitoneal injection, i.p., 2.5 μg/g body weight) treatment. Wet dog shake behavior was recorded and counted for 30 min following icilin administration.

[4] = biological target: TRPM8 (Mus musculus, UniProt Q8R4D5); assay: Calcium imaging of primary cultured DRG neurons from oxaliplatin-treated mice; assay type: cell-based; set-up: endogenous in cells; host or cells: primary cultured dorsal root ganglion neurons from saline- or oxaliplatin-treated mice; settings: 10 μM DeC-1.2, DRG neurons of oxaliplatin treated mice
Protocol: Mice was deeply anaesthetized, decapitated and blood was removed, DRG tissue was dissected off quickly and placed in ice-cold PBS solution. After washing the blood, digestive enzyme (Collagenase A 20 mg/100 ml, Dispase II 300 mg/100 ml dissolved in PBS) was added and DRG was digested at 37° C. for 1 hour. The samples were centrifuged at 500 g for 5 min and the digested tissue was collected. When the enzyme solution was removed, an appropriate amount of DMEM medium (containing 10% FBS, 1× Pen/Strep) was added, and the single cell suspension was prepared by mechanical trituration. The samples were centrifuged at 500 g for 10 min. […]
The primary-cultured DRG neurons were washed with a extracellular solution (ECS, 140 mM NaCl, 5 mM KCl, 1 mM MgCl2, 1.8 mM CaCl2), 10 mM Glucose, 15 mM HEPES, pH=7.4) then incubated in calcium dye incubation solution (2 μM […], 0.05% Pluronic F-127 in ECS) for 30 min. The cell images were continuously and alternately excited by a high-speed continuous monochromatic light source under the excitation wavelength of 340 nm and 380 nm, and recorded in full vision under 20× object lens by Visiview software Intracellular fluorescence intensity changes were continuously recorded at 0.5 fps via a high-speed scanning camera Flash4.0LT. The ratio of fluorescence signal at 340 nm/380 nm represents the intensity of calcium signal. […]

TRPM8, sequence (Q8R4D5 whole entry): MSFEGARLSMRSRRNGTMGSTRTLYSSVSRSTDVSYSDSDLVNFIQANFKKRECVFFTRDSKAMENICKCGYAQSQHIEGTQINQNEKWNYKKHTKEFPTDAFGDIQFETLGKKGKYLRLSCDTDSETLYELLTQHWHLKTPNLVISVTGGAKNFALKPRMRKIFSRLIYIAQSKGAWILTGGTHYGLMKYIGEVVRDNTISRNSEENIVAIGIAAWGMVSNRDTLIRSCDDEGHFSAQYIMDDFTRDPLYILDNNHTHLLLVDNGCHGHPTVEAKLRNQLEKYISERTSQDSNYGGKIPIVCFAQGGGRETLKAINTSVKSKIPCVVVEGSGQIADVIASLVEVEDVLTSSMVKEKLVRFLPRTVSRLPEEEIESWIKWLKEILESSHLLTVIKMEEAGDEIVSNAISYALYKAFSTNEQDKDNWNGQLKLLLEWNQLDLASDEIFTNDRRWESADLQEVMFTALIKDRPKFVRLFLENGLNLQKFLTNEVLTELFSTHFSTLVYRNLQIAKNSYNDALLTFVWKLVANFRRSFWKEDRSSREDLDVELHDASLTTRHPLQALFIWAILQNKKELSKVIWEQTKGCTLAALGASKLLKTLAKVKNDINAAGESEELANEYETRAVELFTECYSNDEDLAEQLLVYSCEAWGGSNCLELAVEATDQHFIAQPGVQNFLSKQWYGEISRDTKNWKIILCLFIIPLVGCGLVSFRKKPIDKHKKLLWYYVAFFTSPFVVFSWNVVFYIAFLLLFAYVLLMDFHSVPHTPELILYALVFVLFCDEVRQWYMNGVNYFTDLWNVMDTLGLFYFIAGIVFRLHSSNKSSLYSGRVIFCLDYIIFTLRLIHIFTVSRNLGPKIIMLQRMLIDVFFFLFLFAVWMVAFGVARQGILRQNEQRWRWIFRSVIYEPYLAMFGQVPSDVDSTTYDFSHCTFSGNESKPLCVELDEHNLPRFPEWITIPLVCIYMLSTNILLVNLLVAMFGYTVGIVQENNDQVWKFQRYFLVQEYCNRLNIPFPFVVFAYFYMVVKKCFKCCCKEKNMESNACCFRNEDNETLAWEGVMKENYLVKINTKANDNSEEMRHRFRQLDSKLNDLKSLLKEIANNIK

SMILES: C[C@@H]1NC(=O)[C@H](CCCNC(=N)N)NC(=O)[C@H](CC(=O)O)NC(=O)[C@H](CCCNC(=N)N)NC(=O)[C@H](CCCNC(=N)N)NC(=O)[C@@H](N)CSSC[C@@H](C(=O)O)NC(=O)[C@H](CCCNC(=N)N)NC(=O)[C@H](CCC(N)=O)NC(=O)[C@H](CCCNC(=N)N)NC(=O)[C@H](Cc2ccc(O)cc2)NC(=O)[C@H](Cc2c[nH]cn2)NC(=O)[C@H](CCCNC(=N)N)NC1=O [DeC-1.2, CRRDRARHYRQRC] (HELM PEPTIDE1{C.R.R.D.R.A.R.H.Y.R.Q.R.C}$PEPTIDE1,PEPTIDE1,1:R3-13:R3$$$V2.0; N-terminus and C-terminus assumed)
- activity against cold allodynia (paw withdrawal latency, 10° C. cooling plate) [1]: exhibited strong activity
- paw withdrawal threshold in von Frey test [2]: did not change paw withdrawal threshold
- inhibition of WSD behaviors induced by icilin ([3]; 0.3 μg/g body weight i.v., 30 min before icilin): significantly inhibit
- reduction of WDS behavior in icilin treated mice ([3]; 30 μg/g body weight i.v.): largely reduce WDS behavior
- dose dependence of inhibition of icilin-induced wet-dog shakes ([3]; gradient dose i.v.): dose-dependently significantly reduces; also recorded: significantly dose-dependent
- amplitude of calcium influx induced by menthol [4]: significantly inhibit
- percentage of positive reaction cells in response to menthol [4]: significantly inhibit

From patent US20240417428A1, “POLYPEPTIDE FOR INHIBITING TRPM8 AND USE THEREOF” (ZHEJIANG UNIVERSITY, priority 2021, published 2024)
